# Reference: patent publication US20230338307A1, “PROPHYLACTIC AGENT, AMELIORATING AGENT, AND THERAPEUTIC AGENT FOR DRY EYE” (TSUBOTA LABORATORY, INC., priority 2020, published 2023)
# System: dry eye model
# Assay: Schirmer test (tear volume), dry eye model by erlotinib instillation (Example 1)
# Type: in vivo
# Details: 0.003% (w/v) apocynin in PBS, 3 μL twice daily, two weeks after start of instillation; erlotinib-instilled C57BL6 mice; FIG. 2
# Description: After acclimating male C57BL6 mice (7 weeks old) to the experimental environment, those with almost uniform body weight values and no eye abnormalities were divided into the following 3 groups (n=5). • 7 weeks old/normal (non-dry eye group) • 7 weeks old/dry eye model+control (solvent eye drop) group • 7 weeks old/dry eye model+apocynin eye drop group The dry eye model was created by daily instillation of an EGF receptor inhibitor (erlotinib) based on the method of Yang et al. In this model, administration of erlotinib causes dry eye symptoms such as shortened BUT, decreased tear volume, and corneal damage after 1 week of administration (Non-patent Document 3). After 20 μM of erlotinib was instilled for 2 weeks, the control group received PBS alone, and the test group received 3 μL of a suspension of 0.003% (w/v) apocynin in PBS twice daily. Two weeks after the start of instillation, 1 μL of 0.1% sodium fluorescein solution was instilled into each of both eyes under isoflurane anesthesia, and a BUT test was performed using a slit lamp (Kowa Co., Ltd., SL-17) (FIG. 1). […] Under anesthesia, the tip of a Schirmer test paper cut to 1 mm width was inserted into the conjunctival sac of the lower eyelid of the mouse, the test paper was removed after 5 minutes, the length of the wetted part was read in units of 0.5 mm, and the value was used as the tear volume (FIG. 2).
smiles,measurement,value
"COc1cc(C(C)=O)ccc1O [apocynin, 4-hydroxy-3-methoxyacetophenone]",tear volume (Schirmer test),improved
